Source: US6916802B2, “Amino ceramide-like compounds and therapeutic methods of use” (Genzyme Corporation, priority 2002, dated 2005)
Values joined by “and” are separate entries in the source; they are usually repeats but may differ in a detail not shown here. Equal entries are not always repeated. Marks after values point to notes of the source that are not given here.

Columns and labels:
MDCK cells = assay: Lipid changes in MDCK cells (GlcCer, ceramide, diacylglycerol); assay type: cell-based, canine; details: for Ceramide / Diglyceride: diglyceride kinase method; for level of GlcCer, estimated visually (TLC): 24 h incubation
Experimental: TLC of the cell lipids was run with C-M-W 24:7:1 (solvent D) or 60:35:8 (solvent E).
Ceramide accumulation was similar for both stereoisomers (data not shown). An unexpected finding is that noticeable ceramide accumulation appeared only at inhibitor concentrations that were more than enough to bring GlcCer levels to a very low point (e.g., at 2 or 4 μM). The changes in ceramide concentration were quantitated in a separate experiment by the diglyceride kinase method, which allows one to also determine diacylglycerol (DAG) concentration (Preiss, J. E. et al., “Quantitative Measurement of SN-1,2-Diacylglycerols Present in Platelets, Hepatocytes, and Ras- and Sis-Transformed Normal Rat Kidney Cells,” J. Biol. Chem., 261:8597-8600 (1986)). The results (Table 5) are similar to the visually estimated ones: at 0.4 μM BML-129 or -130 there was little effect on ceramide content but at 4 μM inhibitor, a substantial increase was observed. (While the duplicate protein contents per incubation dish were somewhat erratic in the high-dose dishes, in which growth was slow, the changes were nevertheless large and clear.) Accumulation of ceramide had previously been observed with PDMP, at a somewhat higher level of inhibitor in the medium (Shayman, J. A. et al., “Modulation of Renal Epithelial Cell Growth by Glucosylceramide: Association with Protein Kinase C, Sphingosine, and Diacylglyceride,” J. Biol. Chem., 266:22968-22974 (1991)). From the data for cellular protein per incubation dish, it can be seen that there was no growth inhibition at the 0.4 μM level with either compound but substantial inhibition at the 4 μM level, especially with the glucosyltransferase inhibitor, BML-130. This finding is similar to the ones made in longer incubations with human cancer cells.

[1] = tested on: H-460 lung large cell carcinoma cells; assay: Tumor cell growth in vitro (sulforhodamine B), H-460; assay type: cell-based, human; details: rounded off to one digit, read-out: Inhibition of tumor cell growth in vitro, IC50
Experimental: (§1) Growth of cell lines. Comparisons of different inhibitors with regard to suppression of human cancer cell growth were made by the University of Michigan Cancer Center in vitro Drug Evaluation Core Laboratory. MCF-7 breast carcinoma cells, HT-29 colon adenocarcinoma cells, H-460 lung large cell carcinoma cells, and 9L brain gliosarcoma cells were grown in RPMI 1640 medium with 5% fetal bovine serum, 2 mM glutamine, 50 units/ml of penicillin, […] of streptomycin, and 0.1 mg/ml of neomycin. UMSCC-10A head and neck squamous carcinoma cells were grown in minimal essential medium with Earle salts and the same supplements. Medium components were from Sigma Chemical Co. Cells were plated in 96-well microtiter plates (1000 cells/well for H-460 and 9L cells, and 2000 cells/well for the other lines), and the test compounds were added 1 day later. The stock inhibitor solutions, 2 mM in 2 mM BSA, were diluted with different amounts of additional 2 mM BSA, then each solution was diluted 500-fold with growth medium to obtain the final concentrations indicated in the Figures and Tables.
(§2) Five days after plating the H-460 and 9L cells, or 6 days for the other lines, cell growth was evaluated by staining the adhering cells with sulforhodamine B and measuring the absorbance at 520 nm (Skehan, P. et al., “New Colorimetric Cytotoxicity Assay for Anticancer-Drug Screening,” J. Natl. Cancer Inst., 82:1107-1112 (1990)). The absorbance of the treated cultures is reported as percent of that of control cultures, to provide an estimate of the fraction of the cells that survived, or of inhibition of growth rate.

[2] = tested on: Neutral sphingomyelinase (SMase); assay: Neutral sphingomyelinase of MDCK cells; assay type: biochemical, canine
Experimental: Acid and neutral SMase assays were based on the procedures of Gatt et al. (Gatt, S. et al., “Assay of Enzymes of Lipid Metabolism With Colored and Fluorescent Derivatives of Natural Lipids,” Meth. Enzymol., 72:351-375 (1981)), using liposomes containing NBD-SM dispersed like the labeled ceramide (10 μM substrate and 30 μM lecithin). […] Incubation was at 37° C. for 30 min in the ultrasonic bath, then the fluorescent product, NBD-ceramide, was isolated by partitioning the assay mixture with 0.45 ml 2-propanol, 1.5 ml heptane, and 0.2 ml water. After centrifugation, a trace of contaminating NBD-SM was removed from 0.9 ml of the upper layer by washing with 0.35 ml water. The upper layer was analyzed with a fluorometer (460 nm excitation, 515 nm emission).

[3] = tested on: UMSCC-10A head and neck squamous carcinoma cells; assay: Tumor cell growth in vitro (sulforhodamine B), UMSCC-10A; assay type: cell-based, human; details: rounded off to one digit, read-out: Inhibition of tumor cell growth in vitro, IC50
Experimental: as §1, §2

[4] = tested on: HT-29 colon adenocarcinoma cells; assay: Tumor cell growth in vitro (sulforhodamine B), HT-29; assay type: cell-based, human; details: rounded off to one digit, read-out: Inhibition of tumor cell growth in vitro, IC50
Experimental: as §1, §2

Sphingomyelin synthase = Sphingomyelin synthase of MDCK homogenate; assay type: biochemical, canine
Experimental: Sphingomyelin synthase was evaluated with 44 μM [^14C]decanoyl sphingosine (10^5 cpm) dispersed with 136 μM dioleoyllecithin as in the ceramide synthase assay, and 5 mM EDTA and 50 mM Hepes-Na^+ pH 7.5, in a total volume of 0.5 ml. MDCK homogenate was centrifuged at 600×g briefly, then at 100,000×g for 1 h, and the pellet was suspended in water and sonicated with a dipping probe. A portion of this suspension containing 300 μg of protein was used. Incubation was at 37° C. for 30 min, after which the lipids were treated as above, using C-M-W 60:35:8 for the isolation of the labeled decanoyl SM.

Ceramide synthase = Ceramide synthase of MDCK homogenate; assay type: biochemical, canine
Experimental: Ceramide synthase was assayed with 1 μM [3-^3H]sphingosine (70,000 cpm, repurified by column chromatography), 0.2 mM stearoyl-CoA, 0.5 mM dithiothreitol, and ˜300 μg of MDCK homogenate protein in 25 mM phosphate-K^+ buffer, pH 7.4, in a total volume of 0.2 ml. The incubation (for 30 min) and TLC were carried out as above and the ceramide band was counted.

[5] = tested on: MCF-7 breast carcinoma cells; assay: Tumor cell growth in vitro (sulforhodamine B), MCF-7; assay type: cell-based, human; details: rounded off to one digit, read-out: Inhibition of tumor cell growth in vitro, IC50
Experimental: as §1, §2

| IC50 [1] [nM] | IC50 [3] [nM] | IC50 [4] [nM] | Sphingomyelinase Synthase, enzyme activity (% of control) (Sphingomyelin synthase; 5 μM) | Sphingomyelinase Synthase, enzyme activity (% of control) (Sphingomyelin synthase; 50 μM) | Ceramide Synthase, enzyme activity (% of control) (Ceramide synthase; 5 μM) | Ceramide Synthase, enzyme activity (% of control) (Ceramide synthase; 50 μM) | IC50 [5] [nM] | SMILES | Ceramide (MDCK cells; 0.4 μM) | Diglyceride (MDCK cells; 0.4 μM) | level of GlcCer, estimated visually (TLC) (MDCK cells; 0.5 μM) | Ceramide (MDCK cells; 4 μM) | Diglyceride (MDCK cells; 4 μM) | Sphingomyelinase pH 7.1, enzyme activity (% of control) ([2]; 5 μM) | Sphingomyelinase pH 7.1, enzyme activity (% of control) ([2]; 50 μM) | inhibition of sphingomyelin synthase (Sphingomyelin synthase; 50 μM) [%] | level of GlcCer, estimated visually (TLC) (MDCK cells; 0.3 μM) |
| --- | --- | --- | --- | --- | --- | --- | --- | --- | --- | --- | --- | --- | --- | --- | --- | --- | --- |
| 2000 | 2000 | 2000 | 84 ± 27 % of control | 46 ± 11^b % of control | 97 ± 0 % of control | 102 ± 1 % of control | 3000 | CCCCCCCCCCCCCCCC(=O)NC(CN1CCCC1)C(O)c1ccccc1 (racemic) [BML-129] | 0.99 nmol/mg protein and 1.29 nmol/mg protein | 5.13 nmol/mg protein and 5.51 nmol/mg protein | greatly lowered | 3.57 nmol/mg protein and 3.78 nmol/mg protein | 9.30 nmol/mg protein and 9.68 nmol/mg protein | 105 ± 11 % of control | 142 ± 11^b % of control | 54 | – |
| 3000 | 2000 | 2000 | 87 ± 14 % of control | 39 ± 18^b % of control | 108 ± 10 % of control | 106 ± 29 % of control | 2000 | CCCCCCCCCCCCCCCC(=O)NC(CN1CCCC1)C(O)c1ccccc1 (racemic) [BML-130] | 0.94 nmol/mg protein and 0.87 nmol/mg protein | 4.73 nmol/mg protein and 5.65 nmol/mg protein | – | 5.41 nmol/mg protein and 3.34 nmol/mg protein | 11.9 nmol/mg protein and 8.71 nmol/mg protein | 110 ± 7 % of control | 152 ± 14 % of control | 61 | greatly lowered |
